# How the values were obtained:
# TCC-SUP cells = assay: Cell proliferation assay (MTT), TCC-SUP; type: cell-based, human; conditions: TCC-SUP stable subline, without androgen treatment, vs. control-siRNA
# UMUC3 cells = assay: Cell proliferation assay (MTT), UMUC3; type: cell-based, human; conditions: UMUC3 stable subline, without androgen treatment, vs. control-siRNA
# [1] = test system: TCC-SUP and UMUC3 stable sublines (control-siRNA, AR-siRNA); assay: Tumor incidence (tumorigenicity) study of control-siRNA and AR-siRNA sublines in nude mice; type: in vivo, male athymic nude mouse; conditions: vs. control-siRNA cells with control treatment; treatment from tumor cell implantation; tumor positive at 40 mm3
# Excerpt: (§1) The reporter plasmids [mouse mammary tumor virus (MMTV)-luciferase (Luc) and (ARE)4-Luc (provided by Dr. Michael L. Lu at Harvard Medical School)] as well as a retrovirus vector pMSCV/U6 (Clontech)-AR-siRNA were described in previous studies (Miyamoto et al., Int. J. Cancer, 117:866-72 (2005) and Yeh et al., J. Exp. Med. 198:1899-908 (2003)). Using SuperFect reagent (Qiagen), stable cell lines expressing the AR-siRNA were established by transfecting pMSCV/U6-AR-siRNA into Phi-NX packaging retrovirus producer cells (developed by the Nolan Lab at Stanford University). The target cells (i.e., TCC-SUP, UMUC3, and 5637) were then cultured in the presence of the viral supernatant, and infected cells were selected with puromycin (Sigma).
# Bladder cancer cell lines (TCC-SUP, UMUC3, and 5637) were harvested, washed twice with PBS, and resuspended in Matrigel (BD Bioscience) at a final concentration of 1×10^7 cells/mL. Cells (1×10^6 cells in 100 μl per site) were then injected subcutaneously into the right and left flanks of 6-week-old male athymic nude mouse. Treatment (castration or sham surgery, flutamide [0.5 mg/mouse] or placebo pellet injection, and the recently developed anti-AR molecule ASC-J9 (50 mg/Kg or DMSO injection) (Ohtsu et al., J. Med. Chem., 45:5037-42 (2002)) was initiated either (1) at the same time as tumor cell injection (for tumor incidence studies, n=8 mice in each group) or (2) when the sizes of all tumors reached 40 mm^3 (for tumor progression studies, n=12 tumors from 6 mice in each group). Hormonal pellets were replaced as required (every 90 days). Tumor weight was calculated by the following formula: tumor weight (mg)=tumor length (mm)×[tumor width (mm)]^2×0.5 (Geram et al., Cancer Chemother. Rep., 3:47-52 (1972)). Using calipers, each tumor was measured twice a week until either the tumor size reached 40 mm^3 (for tumor incidence study) (Chen et al., Nat. Med., 10:33-9 (2004)), or until the tumor exceeded 10% of the animal's body weight, at which time the mouse was killed (for tumor progression study).
# AR = AR knockdown in stable transfectants (RT-PCR, immunoblot); type: cell-based, human; conditions: AR-siRNA-expressing TCC-SUP and UMUC3 cells vs. scrambled control-siRNA
# Excerpt: as §1
# Total RNA from mouse bladder and xenograft tumor tissues and cultured cells was extracted by the acid guanidinium-phenol-chloroform method as previously described (Miyamoto et al., Cancer, 75:2565-70 (1995)) or by using Trizol reagent (Life Science). […] Using the iCycler (Bio-Rad) and the methods previously described by Miyoshi et al., Prostate, 56:280-6 (2003), real-time quantitative PCR analysis of AR, basic fibroblast growth factor (bFGF), vascular endothelial growth factor (VEGF), and matrix metalloproteinase-9 (MMP-9) was performed on the tissue samples from mouse xenograft tumors. […]
substance,measurement,setting,value
AR-siRNA: siRNA against AR expressed from retrovirus vector pMSCV/U6-AR-siRNA; knocks down the AR in mammalian cells (guide GGGCCCCTGGATGGATAGCTACCTCGAGGTAGCTATCCATCCAGGGGCC; listed as Homo sapiens),reduction of cell proliferation by AR knockdown,TCC-SUP cells,20%
same,reduction of cell proliferation by AR knockdown,UMUC3 cells,15%
same,latency of tumor formation,[1],substantially prolonged
same,levels of AR mRNA and protein,AR,substantially lower
